Assay results from patent US12409201B2, “Care composition and use thereof” (priority 2020, dated 2025).

Assays:
[1] = test system: Rat basophilic leukemia cells (RBL-2H3); assay: β-hexosaminidase level (ELISA) in A23187-stimulated RBL-2H3 cells, anti-allergy effect; type: cell-based; settings: positive control group, concentration not given; RBL-2H3, A23187 1 μg/mL; blank control = 100
Protocol: (§1) Rat basophilic leukemia cells (RBL-2H3) is seeded in a 96-well cell culture plate, with each well containing 5*10^4 cells. Cells are incubated in a 37-degree Celsius incubator with 5% CO2 overnight to allow attachment to the culture plate. Replace the culture medium with culture medium containing the care composition (hereinafter referred to as AMDS) of different dilution rates (1/1600, 1/800, 1/400, 1/200, and 1/100) and control groups (a blank control group and a positive control group, which is incubated in culture medium containing quercetin). After 30 minutes of incubation, A23187 (1 μg/mL) is added and allowed reaction for an hour. β-hexosaminidase level is analyzed by applying cell culture supernatant to enzyme-linked immunosorbent assay (ELISA). Replace the culture medium with that containing MTT (0.5 mg/mL), followed with 2-hour incubation. Discard the MTT-medium solution, and add DMSO (150 μL/well) to each well. Let sit in room temperature for 10 minutes, allowing the purple formazan to fully dissolve. The cell survival rate is calculated and determined by detecting the optical density (O.D.) at wavelength 570 in a spectrophotometer. Cell survival rate (%)=(sample OD570/blank control group OD570)*100%. […] The lower the β-hexosaminidase, the greater the anti-allergy effect. […]

[2] = test system: Rat basophilic leukemia cells (RBL-2H3); assay: MTT cell survival rate of RBL-2H3; type: cell-based; settings: positive control group, concentration not given; RBL-2H3, MTT
Protocol: as §1

## O=c1c(O)c(-c2ccc(O)c(O)c2)oc2cc(O)cc(O)c12 [quercetin]
[1]
  β-hexosaminidase (%): 1.8%
[2]
  Cell survival rate (%): 87.97%
